Test system: NCI-H211 tumor spheroids, viability percent test/control
Experiment: Anticancer human tumor NCI-H211 cell line growth inhibition;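 note: spheroids exposed to agents for seven days before readout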
Settings: spheroids with HUVEC and MSC; for IC50: curve of first compound; for viability, T/C: stronger effect = lower value
Summary of the method: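 Complex spheroids of malignant cells with endothelial cells and mesenchymal stem cells; agents alone or combined, from near clinical Cmax (or 10 microM if unknown) down in half-log steps, 0.25% DMSO final.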

## CNCc1ccc(-c2cc(-c3nc(-c4ccc(S(=O)(=O)C(C)C)cc4)cnc3N)on2)cc1 + Cn1nnc2c(C(N)=O)ncn2c1=O
Second compound 1 µM
  IC50: 11.5 nM
Second compound 3.16 µM
  IC50: 19.7 nM
Second compound 10 µM
  IC50: 16.8 nM
Second compound 31.6 µM
  IC50: < 9.49 nM
Second compound 100 µM
  IC50: < 9.49 nM
Second compound 1 µM, first compound 0.00949 µM
  viability, T/C: 53%
Second compound 1 µM, first compound 0.03 µM
  viability, T/C: 35.3%
Second compound 1 µM, first compound 0.0949 µM
  viability, T/C: 6.53%
Second compound 1 µM, first compound 0.3 µM
  viability, T/C: 1.07%
Second compound 1 µM, first compound 0.949 µM
  viability, T/C: 0.07%
Second compound 1 µM, first compound 3 µM
  viability, T/C: 0.11%
Second compound 3.16 µM, first compound 0.00949 µM
  viability, T/C: 71%
Second compound 3.16 µM, first compound 0.03 µM
  viability, T/C: 37.9%
Second compound 3.16 µM, first compound 0.0949 µM
  viability, T/C: 7.5%
Second compound 3.16 µM, first compound 0.3 µM
  viability, T/C: 0.64%
Second compound 3.16 µM, first compound 0.949 µM
  viability, T/C: 0.13%
Second compound 3.16 µM, first compound 3 µM
  viability, T/C: 0.1%
Second compound 10 µM, first compound 0.00949 µM
  viability, T/C: 66.9%
Second compound 10 µM, first compound 0.03 µM
  viability, T/C: 32.9%
Second compound 10 µM, first compound 0.0949 µM
  viability, T/C: 6.3%
Second compound 10 µM, first compound 0.3 µM
  viability, T/C: 0.72%
Second compound 10 µM, first compound 0.949 µM
  viability, T/C: 0.13%
Second compound 10 µM, first compound 3 µM
  viability, T/C: 0.13%
Second compound 31.6 µM, first compound 0.00949 µM
  viability, T/C: 34%
Second compound 31.6 µM, first compound 0.03 µM
  viability, T/C: 9.23%
Second compound 31.6 µM, first compound 0.0949 µM
  viability, T/C: 2.14%
Second compound 31.6 µM, first compound 0.3 µM
  viability, T/C: 1.16%
Second compound 31.6 µM, first compound 0.949 µM
  viability, T/C: 0.14%
Second compound 31.6 µM, first compound 3 µM
  viability, T/C: 0.14%
Second compound 100 µM, first compound 0.00949 µM
  viability, T/C: 11%
Second compound 100 µM, first compound 0.03 µM
  viability, T/C: 2.34%
Second compound 100 µM, first compound 0.0949 µM
  viability, T/C: 1.63%
Second compound 100 µM, first compound 0.3 µM
  viability, T/C: 1.21%
Second compound 100 µM, first compound 0.949 µM
  viability, T/C: 0.17%
Second compound 100 µM, first compound 3 µM
  viability, T/C: 0.23%

## Cn1ncnc1[C@H]1c2n[nH]c(=O)c3cc(F)cc(c23)N[C@@H]1c1ccc(F)cc1 + CC[C@@]1(O)C(=O)OCc2c1cc1n(c2=O)Cc2cc3c(CN(C)C)c(O)ccc3nc2-1
Second compound 0.003 µM
  IC50: < 9.49 nM
Second compound 0.00949 µM
  IC50: < 9.49 nM
Second compound 0.03 µM
  IC50: < 9.49 nM
Second compound 0.0949 µM
  IC50: < 9.49 nM
Second compound 0.3 µM
  IC50: < 9.49 nM
Second compound 0.003 µM, first compound 0.00949 µM
  viability, T/C: 1.01%
Second compound 0.003 µM, first compound 0.03 µM
  viability, T/C: 1.19%
Second compound 0.003 µM, first compound 0.0949 µM
  viability, T/C: 1.05%
Second compound 0.003 µM, first compound 0.3 µM
  viability, T/C: 1.13%
Second compound 0.003 µM, first compound 0.949 µM
  viability, T/C: 1.18%
Second compound 0.003 µM, first compound 3 µM
  viability, T/C: 1.13%
Second compound 0.00949 µM, first compound 0.00949 µM
  viability, T/C: 1.17%
Second compound 0.00949 µM, first compound 0.03 µM
  viability, T/C: 1.18%
Second compound 0.00949 µM, first compound 0.0949 µM
  viability, T/C: 1.24%
Second compound 0.00949 µM, first compound 0.3 µM
  viability, T/C: 1.21%
Second compound 0.00949 µM, first compound 0.949 µM
  viability, T/C: 1.11%
Second compound 0.00949 µM, first compound 3 µM
  viability, T/C: 1.49%
Second compound 0.03 µM, first compound 0.00949 µM
  viability, T/C: 0.91%
Second compound 0.03 µM, first compound 0.03 µM
  viability, T/C: 1.11%
Second compound 0.03 µM, first compound 0.0949 µM
  viability, T/C: 1.25%
Second compound 0.03 µM, first compound 0.3 µM
  viability, T/C: 1.13%
Second compound 0.03 µM, first compound 0.949 µM
  viability, T/C: 1.14%
Second compound 0.03 µM, first compound 3 µM
  viability, T/C: 1.06%
Second compound 0.0949 µM, first compound 0.00949 µM
  viability, T/C: 1.14%
Second compound 0.0949 µM, first compound 0.03 µM
  viability, T/C: 1.25%
Second compound 0.0949 µM, first compound 0.0949 µM
  viability, T/C: 1.17%
Second compound 0.0949 µM, first compound 0.3 µM
  viability, T/C: 1.17%
Second compound 0.0949 µM, first compound 0.949 µM
  viability, T/C: 1.1%
Second compound 0.0949 µM, first compound 3 µM
  viability, T/C: 1.34%
Second compound 0.3 µM, first compound 0.00949 µM
  viability, T/C: 1.06%
Second compound 0.3 µM, first compound 0.03 µM
  viability, T/C: 1.01%
Second compound 0.3 µM, first compound 0.0949 µM
  viability, T/C: 1.1%
Second compound 0.3 µM, first compound 0.3 µM
  viability, T/C: 1.37%
Second compound 0.3 µM, first compound 0.949 µM
  viability, T/C: 1.05%
Second compound 0.3 µM, first compound 3 µM
  viability, T/C: 1.06%
